Source: the supplement of paper PMC10627819
In brackets after ≈: the same amount, converted by molar mass.

Legend:
S. pneumoniae D39V [1] = tested on: S. pneumoniae D39V
S. aureus DSM 20231 [2] = tested on: S. aureus DSM 20231
S. aureus Newman [3] = tested on: S. aureus Newman
S. pneumoniae D39V [4] = assay: fitness (endpoint OD595 vs no drug) (fraction); higher = more growth
Summary of the method: (§1)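 Fitness is computed from the optical density at which cultures reach stationary phase, divided by the robust mean of no-drug control wells. Any value above 1 is set to 1. Cultures started at OD595 0.01 in 384-well plates with TSB, LB Lennox or CY at 37 °C, and OD595 was read every 30 min for 14 h against a first-reading background.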

S. aureus Newman [5] = assay: as above
Summary of the method: as §1

S. pneumoniae D39V [6] = assay: Bliss interaction score (quartile over a dose matrix) (fitness difference); higher = more antagonism (negative = synergy)
Summary of the method: (§2)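 The Bliss score takes observed fitness and subtracts the expected fitness, calculated as a product of single-drug fitness values. Those single-drug values were inferred from the combination data. Fitness is OD595 at entry into stationary phase divided by the plate's robust no-drug mean, capped at 1, and the score is summarised by quartiles across technical, biological and donor/recipient replicates.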

S. aureus DSM 20231 [7] = assay: as above
Summary of the method: as §2

B. subtilis 168 [8] = assay: as above
Summary of the method: as §2

S. aureus Newman [9] = assay: as above
Summary of the method: as §2

S. aureus DSM 20231 [10] = assay: fitness (endpoint OD595 vs no drug) (fraction); higher = more growth
Summary of the method: as §1

B. subtilis 168 [11] = assay: as above
Summary of the method: as §1
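Wherever Bliss interaction score (quartile over a dose matrix) is given: first quartile when negative (synergy) and third quartile when positive (antagonism).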

CC1(C)S[C@@H]2[C@H](NC(=O)Cc3ccccc3)C(=O)N2[C@H]1C(=O)O [Penicillin G]
Settings | MIC [µg/mL]
S. aureus DSM 20231 [2] | 0.087 (≈ 0.26 µM)
S. aureus Newman [3] | 0.087 (≈ 0.26 µM)
S. pneumoniae D39V [1] | 0.016 (≈ 0.0478 µM)

fitness
Settings | 0.0018 µg/mL | 0.0035 µg/mL | 0.007 µg/mL | 0.014 µg/mL | 0.0195 µg/mL | 0.039 µg/mL | 0.078 µg/mL
S. aureus Newman [5] | – | – | – | – | 0.928 | 0.892 | 0.886
S. pneumoniae D39V [4] | 0.932 | 0.944 | 0.817 | 0.425 | – | – | –

COc1cccc2c1C(=O)c1c(O)c3c(c(O)c1C2=O)C[C@@](O)(C(=O)CO)C[C@@H]3O[C@H]1C[C@H](N)[C@H](O)[C@H](C)O1 [Doxorubicin] + Cc1cc(NS(=O)(=O)c2ccc(N)cc2)no1 [Sulfamethoxazol]
Settings | Bliss interaction score
B. subtilis 168 [8] | 0.0735
S. aureus DSM 20231 [7] | -0.0832
S. aureus Newman [9] | -0.0666
S. pneumoniae D39V [6] | 0.0685

fitness
Settings | first compound 0.25 µg/mL | first compound 0.5 µg/mL | first compound 0.625 µg/mL | first compound 1 µg/mL | first compound 1.25 µg/mL | first compound 2.5 µg/mL
B. subtilis 168 [11], partner 1 µg/mL | – | – | 0.929 | – | 0.885 | 0.723
B. subtilis 168 [11], partner 2 µg/mL | – | – | 0.878 | – | 0.865 | 0.665
B. subtilis 168 [11], partner 4 µg/mL | – | – | ≥ 1 | – | 0.893 | 0.695
S. aureus DSM 20231 [10], partner 1 µg/mL | – | – | 0.831 | – | 0.791 | 0.737
S. aureus DSM 20231 [10], partner 2 µg/mL | – | – | 0.83 | – | 0.911 | 0.869
S. aureus DSM 20231 [10], partner 4 µg/mL | – | – | 0.812 | – | 0.874 | 0.845
S. aureus Newman [5], partner 1 µg/mL | – | – | 0.852 | – | 0.816 | 0.758
S. aureus Newman [5], partner 2 µg/mL | – | – | 0.856 | – | 0.802 | 0.765
S. aureus Newman [5], partner 4 µg/mL | – | – | 0.854 | – | 0.835 | 0.787
S. pneumoniae D39V [4], partner 1 µg/mL | 0.943 | 0.93 | – | 0.904 | – | –
S. pneumoniae D39V [4], partner 2 µg/mL | 0.949 | 0.97 | – | 0.936 | – | –
S. pneumoniae D39V [4], partner 4 µg/mL | 0.965 | 0.954 | – | 0.92 | – | –

fitness, one replicate
Settings | first compound 0.625 µg/mL | first compound 1.25 µg/mL | first compound 2.5 µg/mL
B. subtilis 168 [11], partner 0.5 µg/mL | 0.938 | 0.883 | 0.969
S. aureus Newman [5], partner 8 µg/mL | 0.887 | 0.877 | 0.875

COc1cccc2c1C(=O)c1c(O)c3c(c(O)c1C2=O)C[C@@](O)(C(=O)CO)C[C@@H]3O[C@H]1C[C@H](N)[C@H](O)[C@H](C)O1 [Doxorubicin] + CCN(CC)CCOC(=O)c1ccc(N)cc1 [Procaine]
Settings | Bliss interaction score
B. subtilis 168 [8] | 0.095
S. aureus DSM 20231 [7] | -0.0642
S. aureus Newman [9] | -0.058
S. pneumoniae D39V [6] | 0.07

fitness
Settings | first compound 0.25 µg/mL | first compound 0.5 µg/mL | first compound 0.625 µg/mL | first compound 1 µg/mL | first compound 1.25 µg/mL | first compound 2.5 µg/mL
B. subtilis 168 [11], partner 85.5 µg/mL | – | – | 0.934 | – | 0.89 | 0.672
B. subtilis 168 [11], partner 171 µg/mL | – | – | 0.961 | – | 0.894 | 0.654
B. subtilis 168 [11], partner 342 µg/mL | – | – | 0.887 | – | 0.879 | 0.702
S. aureus DSM 20231 [10], partner 85.5 µg/mL | – | – | 0.829 | – | 0.823 | 0.748
S. aureus DSM 20231 [10], partner 171 µg/mL | – | – | 0.926 | – | 0.916 | 0.832
S. aureus DSM 20231 [10], partner 342 µg/mL | – | – | 0.898 | – | 0.866 | 0.804
S. aureus Newman [5], partner 85.5 µg/mL | – | – | 0.801 | – | 0.823 | 0.745
S. aureus Newman [5], partner 171 µg/mL | – | – | 0.79 | – | 0.835 | 0.752
S. aureus Newman [5], partner 342 µg/mL | – | – | 0.815 | – | 0.747 | 0.764
S. pneumoniae D39V [4], partner 85.5 µg/mL | 0.988 | ≥ 1 | – | 0.917 | – | –
S. pneumoniae D39V [4], partner 171 µg/mL | 0.963 | 0.98 | – | 0.892 | – | –
S. pneumoniae D39V [4], partner 342 µg/mL | 0.97 | 0.996 | – | 0.855 | – | –

Cc1ncc([N+](=O)[O-])n1CCO [Metronidazole] + Cc1cc(NS(=O)(=O)c2ccc(N)cc2)no1 [Sulfamethoxazol]
Settings | Bliss interaction score
B. subtilis 168 [8] | 0.0475
S. aureus DSM 20231 [7] | 0.0776
S. aureus Newman [9] | 0.0439
S. pneumoniae D39V [6] | -0.0219

fitness
Settings | first compound 0.625 µg/mL | first compound 1.073 µg/mL | first compound 1.25 µg/mL | first compound 2.145 µg/mL | first compound 2.5 µg/mL | first compound 4.29 µg/mL
B. subtilis 168 [11], partner 1 µg/mL | 0.876 | – | 0.951 | – | 0.948 | –
B. subtilis 168 [11], partner 2 µg/mL | 0.91 | – | 0.903 | – | 0.896 | –
B. subtilis 168 [11], partner 4 µg/mL | 0.962 | – | 0.992 | – | 0.96 | –
S. aureus DSM 20231 [10], partner 1 µg/mL | 0.982 | – | ≥ 1 | – | ≥ 1 | –
S. aureus DSM 20231 [10], partner 2 µg/mL | 0.983 | – | 0.986 | – | 0.988 | –
S. aureus DSM 20231 [10], partner 4 µg/mL | 0.963 | – | 0.969 | – | 0.992 | –
S. aureus Newman [5], partner 1 µg/mL | ≥ 1 | – | 0.977 | – | 0.97 | –
S. aureus Newman [5], partner 2 µg/mL | 0.94 | – | 0.978 | – | 0.95 | –
S. aureus Newman [5], partner 4 µg/mL | 0.979 | – | 0.997 | – | ≥ 1 | –
S. pneumoniae D39V [4], partner 1 µg/mL | – | 0.935 | – | 0.792 | – | 0.912
S. pneumoniae D39V [4], partner 2 µg/mL | – | 0.952 | – | 0.93 | – | 0.95
S. pneumoniae D39V [4], partner 4 µg/mL | – | 0.984 | – | 0.952 | – | 0.944

one replicate
Settings | fitness
B. subtilis 168 [11], first compound 0.625 µg/mL, partner 0.5 µg/mL | ≥ 1
B. subtilis 168 [11], first compound 1.25 µg/mL, partner 0.5 µg/mL | ≥ 1
B. subtilis 168 [11], first compound 2.5 µg/mL, partner 0.5 µg/mL | ≥ 1
S. aureus Newman [5], first compound 0.625 µg/mL, partner 8 µg/mL | 0.864
S. aureus Newman [5], first compound 0.781 µg/mL, partner 1 µg/mL | ≥ 1
S. aureus Newman [5], first compound 0.781 µg/mL, partner 2 µg/mL | ≥ 1
S. aureus Newman [5], first compound 0.781 µg/mL, partner 4 µg/mL | ≥ 1
S. aureus Newman [5], first compound 1.25 µg/mL, partner 8 µg/mL | 0.911
S. aureus Newman [5], first compound 1.562 µg/mL, partner 1 µg/mL | ≥ 1
S. aureus Newman [5], first compound 1.562 µg/mL, partner 2 µg/mL | ≥ 1
S. aureus Newman [5], first compound 1.562 µg/mL, partner 4 µg/mL | ≥ 1
S. aureus Newman [5], first compound 2.5 µg/mL, partner 8 µg/mL | 0.898
S. aureus Newman [5], first compound 3.124 µg/mL, partner 1 µg/mL | 0.992
S. aureus Newman [5], first compound 3.124 µg/mL, partner 2 µg/mL | 0.982
S. aureus Newman [5], first compound 3.124 µg/mL, partner 4 µg/mL | ≥ 1
S. pneumoniae D39V [4], first compound 1.25 µg/mL, partner 1 µg/mL | 0.979
S. pneumoniae D39V [4], first compound 1.25 µg/mL, partner 2 µg/mL | ≥ 1
S. pneumoniae D39V [4], first compound 1.25 µg/mL, partner 4 µg/mL | 0.916
S. pneumoniae D39V [4], first compound 2.5 µg/mL, partner 1 µg/mL | ≥ 1
S. pneumoniae D39V [4], first compound 2.5 µg/mL, partner 2 µg/mL | ≥ 1
S. pneumoniae D39V [4], first compound 2.5 µg/mL, partner 4 µg/mL | 0.917
S. pneumoniae D39V [4], first compound 5 µg/mL, partner 1 µg/mL | ≥ 1
S. pneumoniae D39V [4], first compound 5 µg/mL, partner 2 µg/mL | ≥ 1
S. pneumoniae D39V [4], first compound 5 µg/mL, partner 4 µg/mL | 0.9
